Data taken from US10239832B2, “N-(1-hydroxy-3-(pyrrolidinyl)propan-2-yl)pyrrolidine-3-carboxamide derivatives as glucosylceramide synthase inhibitors” (BIOMARIN PHARMACEUTICAL INC., priority 2013, dated 2019).

target: T1, GCS (Canis lupus familiaris, UniProt A0A8I3MXG6); assay: GCS enzymatic assay (MDCK cell lysate, NBD-ceramide to glucosylceramide, LC/MS); type: biochemical, canine; conditions: Table 2; class symbols A, B, C; the table does not say which of the assays; read-out: Data Range (IC50 values)
T1 construct: endogenous in cells; host or cells: MDCK (Madin-Darby canine kidney) cells, whole-cell lysate
T1 sequence (A0A8I3MXG6 1-394): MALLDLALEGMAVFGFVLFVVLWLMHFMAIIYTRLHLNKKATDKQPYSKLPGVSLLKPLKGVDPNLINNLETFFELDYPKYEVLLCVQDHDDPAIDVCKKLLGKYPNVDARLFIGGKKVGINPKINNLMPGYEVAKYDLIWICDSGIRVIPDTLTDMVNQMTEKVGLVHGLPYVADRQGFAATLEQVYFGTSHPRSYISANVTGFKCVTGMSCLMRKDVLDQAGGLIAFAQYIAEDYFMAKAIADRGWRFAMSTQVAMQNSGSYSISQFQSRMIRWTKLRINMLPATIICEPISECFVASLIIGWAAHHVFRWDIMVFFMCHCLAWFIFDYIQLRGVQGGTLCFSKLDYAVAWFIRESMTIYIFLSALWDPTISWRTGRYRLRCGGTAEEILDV
Outline: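 Dog MDCK cell lysate served as enzyme source, with NBD-ceramide turned over to glucosylceramide and 0.1% DMSO as mock control. The reaction was stopped with acetonitrile. Both lipids were quantified by LC/MS/MS in ESI positive MRM mode against a tolbutamide internal standard, giving IC50 or percent inhibition.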

Compound	IC50
O=C(N[C@H](CN1CCCC1)[C@H](O)c1ccc2c(c1)OCCO2)[C@@H]1CCN(c2ccc(Cl)c(Oc3ccccn3)c2)C1 [Compound 110, (R)-1-(4-chloro-3-(pyridin-2-yloxy)phenyl)-N-((1R,2R)-1-(2,3-dihydrobenzo[b][1,4]dioxin-6-yl)-1-hydroxy-3-(pyrrolidin-1-yl)propan-2-yl)pyrrolidine-3-carboxamide]	0.001 to 0.03 µM
O=C(N[C@H](CN1CCCC1)[C@H](O)c1cc(F)c2c(c1)OCCO2)[C@@H]1CCN(c2ccc3cc(Cl)sc3c2)C1 [Compound 111, (R)-1-(2-chlorobenzo[b]thiophen-6-yl)-N-((1R,2R)-1-(8-fluoro-2,3-dihydrobenzo[b][1,4]dioxin-6-yl)-1-hydroxy-3-(pyrrolidin-1-yl)propan-2-yl)pyrrolidine-3-carboxamide]	0.001 to 0.03 µM
O=C(N[C@H](CN1CCCC1)[C@H](O)c1cc(F)c2c(c1)OCCO2)[C@@H]1CCN(c2cccc(Oc3ccc(F)cc3)n2)C1 [Compound 116, (R)-N-((1R,2R)-1-(8-fluoro-2,3-dihydrobenzo[b][1,4]dioxin-6-yl)-1-hydroxy-3-(pyrrolidin-1-yl)propan-2-yl)-1-(6-(4-fluorophenoxy)pyridin-2-yl)pyrrolidine-3-carboxamide]	0.001 to 0.03 µM
O=C(N[C@H](CN1CCCC1)[C@H](O)c1ccc(OC2CC2)c(Cl)c1)[C@@H]1CCN(c2cc(Oc3ccccn3)ccc2Cl)C1 [Compound 118, (R)-N-((1R,2R)-1-(3-chloro-4-cyclopropoxyphenyl)-1-hydroxy-3-(pyrrolidin-1-yl)propan-2-yl)-1-(2-chloro-5-(pyridin-2-yloxy)phenyl)pyrrolidine-3-carboxamide]	0.001 to 0.03 µM
O=C(N[C@H](CN1CCCC1)[C@H](O)c1ccc2c(c1)OCCO2)[C@@H]1CCN(c2cccc(Oc3ccc(F)cc3)n2)C1 [Compound 119, (R)-N-((1R,2R)-1-(2,3-dihydrobenzo[b][1,4]dioxin-6-yl)-1-hydroxy-3-(pyrrolidin-1-yl)propan-2-yl)-1-(6-(4-fluorophenoxy)pyridin-2-yl)pyrrolidine-3-carboxamide]	0.001 to 0.03 µM
O=C(N[C@H](CN1CCC1)[C@H](O)c1ccc(OC2COC2)c(Cl)c1)[C@@H]1CCN(c2ccc3cc(F)ccc3c2)C1 [Compound 122, (R)-N-((1R,2R)-3-(azetidin-1-yl)-1-(3-chloro-4-(oxetan-3-yloxy)phenyl)-1-hydroxypropan-2-yl)-1-(6-fluoronaphthalen-2-yl)pyrrolidine-3-carboxamide]	0.001 to 0.03 µM
O=C(N[C@H](CN1CCCC1)[C@H](O)c1ccc2c(c1)OCCO2)[C@@H]1CCN(c2cccc(-c3ccc(F)cc3)n2)C1 [Compound 123, (R)-N-((1R,2R)-1-(2,3-dihydrobenzo[b][1,4]dioxin-6-yl)-1-hydroxy-3-(pyrrolidin-1-yl)propan-2-yl)-1-(6-(4-fluorophenyl)pyridin-2-yl)pyrrolidine-3-carboxamide]	0.001 to 0.03 µM
O=C(N[C@H](CN1CCCC1)[C@H](O)c1cc(F)c2c(c1)OCCO2)[C@@H]1CCN(c2cccc(-c3ccc(F)cc3)n2)C1 [Compound 124, (R)-N-((1R,2R)-1-(8-fluoro-2,3-dihydrobenzo[b][1,4]dioxin-6-yl)-1-hydroxy-3-(pyrrolidin-1-yl)propan-2-yl)-1-(6-(4-fluorophenyl)pyridin-2-yl)pyrrolidine-3-carboxamide]	0.001 to 0.03 µM
O=C(N[C@H](CN1CCCC1)[C@H](O)c1ccc(OC2CC2)c(Cl)c1)[C@@H]1CCN(c2cccc(-c3ccc(F)cc3)n2)C1 [Compound 126, (R)-N-((1R,2R)-1-(3-chloro-4-cyclopropoxyphenyl)-1-hydroxy-3-(pyrrolidin-1-yl)propan-2-yl)-1-(6-(4-fluorophenyl)pyridin-2-yl)pyrrolidine-3-carboxamide]	0.001 to 0.03 µM

Further lines, results first:

IC50	Compound
0.001 to 0.03 µM	CC(C)(O)COc1ccc([C@@H](O)[C@@H](CN2CCCC2)NC(=O)[C@@H]2CCN(c3ccc4ccccc4c3)C2)cc1Cl [Compound 107, (R)-N-((1R,2R)-1-(3-chloro-4-(2-hydroxy-2-methylpropoxy)phenyl)-1-hydroxy-3-(pyrrolidin-1-yl)propan-2-yl)-1-(naphthalen-2-yl)pyrrolidine-3-carboxamide]
0.001 to 0.03 µM	O=C(N[C@H](CN1CCC1)[C@H](O)c1cc(F)c2c(c1)OCCO2)[C@@H]1CCN(c2ccc3cc(Cl)sc3c2)C1 [Compound 108, (R)-N-((1R,2R)-3-(azetidin-1-yl)-1-(8-fluoro-2,3-dihydrobenzo[b][1,4]dioxin-6-yl)-1-hydroxypropan-2-yl)-1-(2-chlorobenzo[b]thiophen-6-yl)pyrrolidine-3-carboxamide]
0.03 to 0.1 µM	O=C(N[C@H](CN1CCCC1)[C@H](O)c1ccc(OC2CC2)c(Cl)c1)[C@@H]1CCN(c2ccc3cc(Cl)sc3c2)C1 [Compound 109, (R)-N-((1R,2R)-1-(3-chloro-4-cyclopropoxyphenyl)-1-hydroxy-3-(pyrrolidin-1-yl)propan-2-yl)-1-(2-chlorobenzo[b]thiophen-6-yl)pyrrolidine-3-carboxamide]
0.001 to 0.03 µM	O=C(N[C@H](CN1CCCC1)[C@H](O)c1ccc(OC2CC2)c(Cl)c1)[C@@H]1CCN(c2cccc(Oc3ccc(Cl)cc3)n2)C1 [Compound 112, (R)-N-((1R,2R)-1-(3-chloro-4-cyclopropoxyphenyl)-1-hydroxy-3-(pyrrolidin-1-yl)propan-2-yl)-1-(6-(4-chlorophenoxy)pyridin-2-yl)pyrrolidine-3-carboxamide]
0.001 to 0.03 µM	O=C(N[C@H](CN1CCCC1)[C@H](O)c1ccc2c(c1)OCCO2)[C@@H]1CCN(c2cccc(Oc3ccc(Cl)cc3)n2)C1 [Compound 113, (R)-1-(6-(4-chlorophenoxy)pyridin-2-yl)-N((1R,2R)-1-(2,3-dihydrobenzo[b][1,4]dioxin-6-yl)-1-hydroxy-3-(pyrrolidin-1-yl)propan-2-yl)pyrrolidine-3-carboxamide]
0.001 to 0.03 µM	O=C(N[C@H](CN1CCCC1)[C@H](O)c1cc(F)c2c(c1)OCCO2)[C@@H]1CCN(c2cccc(Oc3ccc(Cl)cc3)n2)C1 [Compound 114, (R)-1-(6-(4-chlorophenoxy)pyridin-2-yl)-N((1R,2R)-1-(8-fluoro-2,3-dihydrobenzo[b][1,4]dioxin-6-yl)-1-hydroxy-3-(pyrrolidin-1-yl)propan-2-yl)pyrrolidine-3-carboxamide]
0.001 to 0.03 µM	O=C(N[C@H](CN1CCCC1)[C@H](O)c1ccc(OC2CC2)c(Cl)c1)[C@@H]1CCN(c2cccc(Oc3ccc(F)cc3)n2)C1 [Compound 115, (R)-N-((1R,2R)-1-(3-chloro-4-cyclopropoxyphenyl)-1-hydroxy-3-(pyrrolidin-1-yl)propan-2-yl)-1-(6-(4-fluorophenoxy)pyridin-2-yl)pyrrolidine-3-carboxamide]
0.001 to 0.03 µM	O=C(N[C@H](CN1CCCC1)[C@H](O)c1ccc(OC2COC2)c(Cl)c1)[C@@H]1CCN(c2ccc3cc(F)ccc3c2)C1 [Compound 117, (R)-N-((1R,2R)-1-(3-chloro-4-(oxetan-3-yloxy)phenyl)-1-hydroxy-3-(pyrrolidin-1-yl)propan-2-yl)-1-(6-fluoronaphthalen-2-yl)pyrrolidine-3-carboxamide]

same assay, conditions: Table 2; class symbols D, E, F, NA (not active); the table does not say which of the assays

Compound	Data Range (% inhibition)
O=C(N[C@H](CN1CCCC1)[C@H](O)c1ccc2c(c1)OCCO2)[C@@H]1CCN(c2ccc3cccnc3c2)C1 [Compound 106, (R)-N-((1R,2R)-1-(2,3-dihydrobenzo[b][1,4]dioxin-6-yl)-1-hydroxy-3-(pyrrolidin-1-yl)propan-2-yl)-1-(quinolin-7-yl)pyrrolidine-3-carboxamide]	D (75-100%)
O=C(N[C@H](CN1CCCC1)[C@H](O)c1ccc2c(c1)OCCO2)[C@@H]1CCN(C(=O)c2ccccc2)C1 [Compound 121, (R)-1-benzoyl-N-((1R,2R)-1-(2,3-dihydrobenzo[b][1,4]dioxin-6-yl)-1-hydroxy-3-(pyrrolidin-1-yl)propan-2-yl)pyrrolidine-3-carboxamide]	NA (not active—a negative value was generated for % inhibition)

Next, values leading:

Data Range (% inhibition)	Compound
F (1-49% (or less than 50%))	O=C(N[C@H](CN1CCCC1)[C@H](O)c1cc(F)c2c(c1)OCCO2)[C@@H]1CCN(C(=O)c2ccccc2)C1 [Compound 120, (R)-1-benzoyl-N-((1R,2R)-1-(8-fluoro-2,3-dihydrobenzo[b][1,4]dioxin-6-yl)-1-hydroxy-3-(pyrrolidin-1-yl)propan-2-yl)pyrrolidine-3-carboxamide]
E (50-74% (or less than 75%))	Cn1ncc2cc(N3CC[C@@H](C(=O)N[C@H](CN4CCCC4)[C@H](O)c4cc(F)c5c(c4)OCCO5)C3)ccc21 [Compound 125, (R)-N-((1R,2R)-1-(8-fluoro-2,3-dihydrobenzo[b][1,4]dioxin-6-yl)-1-hydroxy-3-(pyrrolidin-1-yl)propan-2-yl)-1-(1-methyl-1H-indazol-5-yl)pyrrolidine-3-carboxamide]
E (50-74% (or less than 75%))	Cn1ncc2cc(N3CC[C@@H](C(=O)N[C@H](CN4CCCC4)[C@H](O)c4ccc(OC5CC5)c(Cl)c4)C3)ccc21 [Compound 127, (R)-N-((1R,2R)-1-(3-chloro-4-cyclopropoxyphenyl)-1-hydroxy-3-(pyrrolidin-1-yl)propan-2-yl)-1-(1-methyl-1H-indazol-5-yl)pyrrolidine-3-carboxamide]
